In patent EP0465323A1, “Pyrimidin derivatives, angiotensin II receptor antagonists, their process of preparation and pharmaceutical compositions containing them” (LABORATOIRES UPSA, priority 1990, dated 1992):

Tested on: récepteurs surrénaliens de l'angiotensine II
Assay: Displacement of radioligand [125I]-SIAII specifically bound to rat adrenal angiotensin II receptors
Format: binding
Conditions: rat adrenal homogenate, 60 min at 25°C
Source text: L'affinité des produits des exemples pour les récepteurs de l'angiotensine Il est évaluée par technique de déplacement d'un radioligand spécifiquement fixé sur les récepteurs surrénaliens de l'angiotensine II, chez le rat.
Une aliquote d'un homogénat de surrénales de rat incube en présence d'une concentration unique de [^125| ] - SIAII (Sar^1, Tyr^4, lle^8- angiotensine II), antagoniste des récepteurs de l'angiotensine II, et de deux concentrations d'agents compétiteurs (10^-5 M, 10-^7 M), durant 60 min à 25°C.
La réaction est achevée par ajout de tampon, puis rapide filtration à travers des filtres de papier de verre. La liaison non spécifique est déterminée en présence d'angiotensine II.
Les résultats sont exprimés, pour les concentrations testées, en pourcentage de déplacement du radioligand spécifiquement fixé sur les récepteurs surrénaliens de l'angiotensine II.

Row | Compound | % de déplacement du ligand marqué (competitor 1E-5M, 10 µM) | % de déplacement du ligand marqué (competitor 1E-7M, 0.1 µM)
1 | CCCc1nc(C)n(CC(=O)OCC)c(=O)c1Cc1ccc(NC(=O)c2ccccc2S(=O)(=O)O)cc1 [Exemple 13] | 96% | 64%
2 | CCCc1nc(C)n(CC(=O)O)c(=O)c1Cc1ccc(NC(=O)c2c(Cl)ccc(Cl)c2C(=O)O)cc1 [Exemple 14, Acide [n-propyl-4 méthyl-2 oxo-6 [(carboxy-2 dichloro-3,6-phényl)carbonylamino-4 phénylméthyl]-5 pyrimidine-yl-1 (6H)-] acétique] | 81% | 38%
3 | CCCc1nc(C)nc(OCCO)c1Cc1ccc(-c2ccccc2C(=O)O)cc1 [Exemple 16, Acide [n-propyl-6 méthyl-2 hydroxy éthyloxy-4 pyrimidine-yl-5] méthyl-4' biphényl-2 carboxylique] | 65% | 31%
4 | CCCc1nc(C)nc(SCC(=O)OCC)c1Cc1ccc(NC(=O)c2ccccc2S(=O)(=O)O)cc1 [Exemple 24, Acide [[n-Propyl-6 méthyl-2 (éthoxycarbonyl méthyl mercapto)-4 pyrimidine-yl-5]méthylphényl-yl-4] amino carbonyl-2 benzène sulfonique] | 93% | 62%
5 | CCCc1nc(C)nc(OC(=O)N(C)C)c1Cc1ccc(NC(=O)c2ccccc2S(=O)(=O)O)cc1 [Exemple 27, Acide [[n-propyl-6 méthyl-2 (N,N-diméthyl amino carbonyloxy)-4 pyrimidine-yl-5]méthylphényl-yl-4] amino carbonyl-2 benzène sulfonique] | 76% | 20%
6 | CCCc1nc(C)nc(OC)c1Cc1ccc(-c2ccccc2-c2nn[nH]n2)cc1 [Exemple 31, n-Propyl-6 méthy1-2 méthoxy-4 [(tétrazol-yl-5)-2' biphényl-yl-4] méthyl-5 pyrimidine] | 71% | 51%
7 | CCCc1nc(C)n(CC(=O)OCC)c(=O)c1Cc1ccc(-c2ccccc2-c2nn[nH]n2)cc1 [Exemple 32, [n-Propyl-4 méthyl-2 oxo-6 [(tétrazol-yl-5)-2' biphényl-yl-4]méthyl-5 pyrimidine-yl-1 (6H)-] acétate d'éthyle] | 94% | 67%
8 | CCCc1nc(C)nc(SCC(=O)OCC)c1Cc1ccc(-c2ccccc2-c2nn[nH]n2)cc1 [Exemple 33, [n-Propyl-6 méthyl-2 [(tétrazol-yl-5)-2' biphényl-yl-4]méthyl-5 pyrimidine-yl-4] mercapto acétate d'éthyle] | 69% | 62%
9 | CCCc1nc(C)nc(SCCO)c1Cc1ccc(NC(=O)c2ccccc2S(=O)(=O)O)cc1 [Exemple 54, Acide [(n-Propyl-6 méthyl-2 hydroxyéthylmercapto-4 pyrimidine-yl-5)methylphenyl-yl-4] amino carbonyl-2 benzène sulfonique] | 84% | 65%
10 | CCCCc1nc(C)nc(SCCO)c1Cc1ccc(NC(=O)c2ccccc2S(=O)(=O)O)cc1 [Exemple 55, Acide [(n-butyl-6 méthyl-2 hydroxyéthylmercapto-4 pyrimidine-yl-5)méthylphényl-yl-4] amino carbonyl-2 benzène sulfonique] | 86% | 60%
11 | CCCc1nc(C)nc(N2CCOCC2)c1Cc1ccc(NC(=O)c2ccccc2S(=O)(=O)O)cc1 [Exemple 56, Acide [[n-Propyl-6 méthyl-2 (morpholine-yl-1)-4 pyrimidine-yl-5]méthylphényl-yl-4] amino carbonyl-2 benzène sulfonique] | 86% | 59%
12 | CCCCc1nc(C)nc(N)c1Cc1ccc(NC(=O)c2ccccc2S(=O)(=O)O)cc1 [Exemple 57, Acide [(n-Butyl-6 méthyl-2 amino-4 pyrimidine-yl-5)méthylphényl-yl-4] amino carbonyl-2 benzène sulfonique] | 80% | 69%
13 | CCCc1nc(C)nc(N2CCN(c3ccccc3OC)CC2)c1Cc1ccc(NC(=O)c2ccccc2S(=O)(=O)O)cc1 [Exemple 58, Acide [[n-Propyl-6 méthyl-2 ((méthoxy-2 phényl)pipérazine-yl-4)-4 pyrimidine-yl-5]méthylphényl-yl-4] amino carbonyl-2 benzène sulfonique] | 78% | 53%
14 | CCCc1nc(C)nc(SC)c1Cc1ccc(NC(=O)c2ccccc2S(=O)(=O)O)cc1 [Exemple 59, Acide [[n-Propyl-6 méthyl-2 méthylthio-4 pyrimidine-yl-5]méthylphényl-yl-4] amino carbonyl-2 benzène sulfonique] | 89% | 57%
15 | CCCCc1nc(C)nc(SCC(=O)OCC)c1Cc1ccc(NC(=O)c2ccccc2S(=O)(=O)O)cc1 [Exemple 61, Acide [[n-Butyl-6 Méthyl-2 (éthoxycarbonyl méthyl thio)-4 pyrimidine-yl-5]méthylphényl-yl-4] amino carbonyl-2 benzène sulfonique] | 96% | 63%
16 | CCCCc1nc(-c2ccccc2)nc(SCC(=O)OCC)c1Cc1ccc(NC(=O)c2ccccc2S(=O)(=O)O)cc1 [Exemple 75, Acide [[n-butyl-6 phényl-2 (éthoxy carbonyl méthyl thio)-4 pyrimidine-yl-5]méthylphényl-yl-4] amino carbonyl-2 benzène sulfonique] | 72% | 0%
17 | CCCCc1nc(C(C)C)nc(SCC(=O)OCC)c1Cc1ccc(NC(=O)c2ccccc2S(=O)(=O)O)cc1 [Exemple 76, Acide [[n-butyl-6 isopropyl-2 (éthoxy carbonyl méthyl thio)-4 pyrimidine-yl-5]méthylphényl-yl-4] amino carbonyl-2 benzène sulfonique] | 93% | 37%
18 | CCCCc1nc(-c2ccccc2)nc(SCCO)c1Cc1ccc(NC(=O)c2ccccc2S(=O)(=O)O)cc1 [Exemple 77, Acide [[n-butyl-6 phényl-2 (hydroxy éthyl thio)-4 pyrimidine-yl-5]méthylphényl-yl-4] amino carbonyl-2 benzène sulfonique] | 63% | 4%
19 | CCCCc1nc(C(C)C)nc(SCCO)c1Cc1ccc(NC(=O)c2ccccc2S(=O)(=O)O)cc1 [Exemple 78, Acide [[n-butyl-6 isopropyl-2 (hydroxy éthyl thio)-4 pyrimidine-yl-5]méthylphényl-yl-4] amino carbonyl-2 benzène sulfonique] | 74% | 41%
